Three compounds from patent US20100104629A1, “CATIONIC LIPIDS AND USES THEREOF” (ABBOTT LABORATORIES, priority 2008, published 2010) can be followed below.

The test system of test [1] is β-galactosidase in tumor sections. As to the kind of experiment: IHC analysis of β-galactosidase in intraliver tumors after i.v. dosing of formulated siRNA. In kind it is in vivo, Scid female mice. More on the design: key to β-galactosidase IHC staining score, column 1 / β-galactosidase IHC staining score, column 2 / β-galactosidase IHC staining score, column 3 / β-galactosidase IHC staining score, column 4 / β-galactosidase IHC staining score, column 5 / β-galactosidase IHC staining score, column 6: −: there was no staining, a small area of weak staining, or disperse strong single cell staining; +/−: there was 5% of the section with weak staining or one patch of strong staining; +: there was 15% of the section with strong staining; ++: there was ˜50% of the section with strong straining; +++: there was 80% of the section with strong straining; ++++: the whole section had strong staining. Here is the method:
The animal studies were carried out in accordance with internal Institutional Animal Care and Use Committee (IACUC) guidelines at Abbott Laboratories. Scid female mice at 6 to 8 weeks of age were obtained from Charles River Laboratory and used for intraliver tumor models. Mouse livers were exposed by vertical incision on mouse abdomens and the tumor cells were directly injected into the livers. The incision was closed by suture and wound clips. All cell lines used for creating xenograft tumors were subjected to the IMPACT profile I test (18 agents) at the University of Missouri Research Animal Diagnostic and Investigative Laboratory, and all cell lines were found negative for the 18 infectious agents tested. Tumor cells were suspended in a 1:1 mixture of S-MEM (Invitrogen, Carlsbad, Calif.) and matrigel (BD Bioscience, San Jose, Calif.) and inoculated at 1×10E6 cells per animal.
Treatments were started 3˜4 weeks after tumor inoculation. Formulated or unformulated siRNAs were administrated via tail vein (i.v) injection.
IHC was carried out as previously described [Li, L., et al., Evaluating hypoxia-inducible factor-1alpha as a cancer therapeutic target via inducible RNA interference in vivo. Cancer Res, 2005. 65(16): p. 7249-58]. Briefly, tumors were excised, cut into pieces of less than 3 mm in thickness and immediately fixed in buffered formalin solution with neutral pH (Sigma, St. Louis, Mo.). The formalin-fixed and paraffin-embedded tumor sections were then used for staining The mouse anti-β-galactosidase mAb (Promega, Madison, Wis.) was used to detect β-galactosidase in tumor sections. DAB (3,3′-diaminobenzidine) was used as the chromogen. IHC images were acquired using the Nikon TE2000 inverted microscope. The β-galactosidase staining was evaluated by 2 people independently based on the scoring system listed below. The average of the score was calculated for each tumor.
−, there was no staining, a small area of weak staining, or disperse strong single cell staining +/−, there was 5% of the section with weak staining or one patch of strong staining +, there was 15% of the section with strong staining ++, there was ˜50% of the section with strong straining +++, there was 80% of the section with strong straining ++++, the whole section had strong staining

For test [2], the system named is MDA435-TetR-Luc cells. Put plainly: Transfection efficiency of MDA435-TetR-Luc cells with Lipid-Based Particles (TetRLuc assay). The format is cell-based. The settings on record: formulation employing the cationic lipid. Here is the method: To determine the knockdown efficacy of Lipid-Based Particles in an in vitro assay, MDA435-TetR-Luc cells (The positive readout reporter cell line MDA435-TetR-Luc contained a stably integrated copy of the luciferase gene expressed from a CMV promoter containing the tetR operator site. In addition, gene coding for a destabilized TetR protein was expressed in this cell line.) were plated in 96 well plate at a density of 10K cells per well in 100 ul of DMEM (Dulbecco's Modified Eagles Medium, Invitrogen Corp.) containing 10% fetal bovine serum (Invitrogen Corp.). Appropriate dilutions of Lipid-Based Particles were made in DMEM+10% fetal bovine serum medium, 10 ul of the diluted material was transferred into each well in triplicate. Transfected cells were further incubated at 37° C. for a period of 72 hours. […] The graphs represent average of triplicate readings of the Lipid-Based Particles treated sample divided by the average of readings from 9 wells treated with doxycycline.
The ability of novel cationic lipids to transfect siRNA in vitro was evaluated in the TetRLuc assay. By utilizing a releasable PEG lipid as for examples in formulations “a” or “b”, the transfection efficiency of the unshielded or partially shielded particle may be determined.

The structures appear in SMILES notation.

Consider `C[C@H]1c2cccc(O)c2C(=O)C2=C(O)[C@]3(O)C(=O)C(C(N)=O)=C(O)[C@@H](N(C)C)[C@@H]3[C@@H](O)[C@@H]21` [Doxycycline], for which, in test [1] (intraliver tumor, i.v. tail vein, column 1 of 6 (not further defined)), the “β-galactosidase IHC staining score, column 1” value is reported as “+++”. The “β-galactosidase IHC staining score, column 2” value in test [1] (intraliver tumor, i.v. tail vein, column 2 of 6 (not further defined)) is listed as “+++”. Also, the “β-galactosidase IHC staining score, column 3” value in test [1] (intraliver tumor, i.v. tail vein, column 3 of 6 (not further defined)) is “+++”. Besides, in test [1] (intraliver tumor, i.v. tail vein, column 4 of 6 (not further defined)), the “β-galactosidase IHC staining score, column 4” value was “+++”. The “β-galactosidase IHC staining score, column 5” value in test [1] (intraliver tumor, i.v. tail vein, column 5 of 6 (not further defined)) is recorded as “+++”. Further, the “β-galactosidase IHC staining score, column 6” value in test [1] (intraliver tumor, i.v. tail vein, column 6 of 6 (not further defined)) is “+++”.

As for `CCCCC/C=C\C/C=C\CCCCCCCCOCC(CN1CCCC1)OCCCCCCCC/C=C\C/C=C\CCCCC` (stereo not drawn) [Example 1, 1-(2,3-bis((9Z,12Z)-octadeca-9,12-dienyloxy)propyl)pyrrolidine], in test [1] (formulation employing the cationic lipid), the in vivo delivery entry was “efficient in vivo delivery”. Further, in test [2], the “in vitro transfection activity” value is “provided in vitro transfection activity”.

In the case of `CCCCC/C=C\C/C=C\CCCCCCCCOCC(CN(CC)CC)OCCCCCCCC/C=C\C/C=C\CCCCC` (stereo not drawn) [Example 57, N,N-diethyl-2,3-bis((9Z,12Z)-octadeca-9,12-dienyloxy)propan-1-amine], the “in vitro transfection activity” value in test [2] is listed as “may diminish activity”.
